The text below walks through data of PubChem BioAssay (NCI).

The structures appear in SMILES notation.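 Each compound was tested at five concentrations against cells in 96-well plates for 48 hours. GI50 is the concentration that inhibits growth by half. TGI marks complete inhibition of growth.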

Holding throughout (assay): inhibition of tumour cell growth, NCI panel, 48 h
The test system of assay [1] is NCI-H226 lung.
In assay [2] the test system is BT-549 breast.
The test system of assay [3] is HOP-92 NSCLC.
Assay [4] has as its system NCI-H460 lung.
Assay [5] relates to SF-268 CNS.
In assay [6] the test system is RXF 393 renal.
Assay [7] deals with NCI-H23 lung.
In assay [8] the test system is SK-MEL-5 melanoma.
The subject of assay [9] is LOX IMVI melanoma.
For assay [10], the system named is HCT-15 colon.

For the compound `CCCN(CCC)c1ccc(C=O)c(OC)c1`, the GI50 in assay [1] is 28.5 µM; in assay [2], 22 µM; in assay [3] it was 13.3 µM; in [4] it was 24 µM; in assay [5] it was 22 µM; in [6] it was 26.9 µM. The GI50 in assay [7] is 22.2 µM; in [8], 14.5 µM; in [9] it was 25.8 µM; in [10], 24.1 µM. Moreover, the TGI in [1] was over 100 µM; in assay [2], 80.2 µM; in assay [3], 86.7 µM; in assay [4], over 100 µM; in assay [5] it was over 100 µM; in assay [6] it was over 100 µM. Besides, the TGI in assay [7] was over 100 µM; in [8], 29.3 µM; in assay [9] it was over 100 µM; in [10], over 100 µM.
`CCOc1ccc2c(-c3ccnc(Nc4cccc(C(F)(F)F)c4)n3)cnn2n1`: the GI50 in assay [1] is over 25 µM; in [2], over 23.8 µM; in assay [3] it was 5.05 µM; in assay [4], 9.05 µM; in assay [5], 7.87 µM; in assay [6], 14.2 µM. The GI50 was 6.97 µM in assay [7], over 25 µM in assay [8], 12.3 µM in assay [9] and over 23.8 µM in assay [10]. The TGI in assay [1] is over 25 µM; in [2], over 25 µM; in [3] it was 24 µM; in assay [4], over 25 µM; in assay [5] it was over 19.6 µM; in assay [6], over 25 µM. The TGI in assay [7] was over 20 µM; in [8] it was over 25 µM; in assay [9] it was over 25 µM; in [10], over 25 µM.
On to `CCN(CCc1ccc(F)cc1)c1ccc(CO)c(Cl)c1`, for which the GI50 in assay [1] is 0.199 µM; in [2] it was 11.4 µM; in assay [3] it was 1.94 µM; in assay [4] it was 6.3 µM; in assay [5], 14.3 µM; in assay [6] it was 4.72 µM. Also, the GI50 in [7] was 12.2 µM; in assay [8], 13 µM; in assay [9], 12.1 µM; in assay [10] it was 9.84 µM. The TGI in assay [1] came out at 0.637 µM; in assay [2], 23.8 µM; in [3], 13.5 µM; in assay [4], 21.6 µM; in assay [5], 28.6 µM; in [6], 19.9 µM. For the same compound, the TGI amounted to 31 µM in assay [7], 25.9 µM in [8], 25.6 µM in [9] and 24.6 µM in [10].
Regarding `CCc1nc2cc(/C=C/C(=O)NO)c(F)cc2c(=O)n1CCc1ccccc1`, the GI50 in [1] is 1.25 µM; in [2] it was 2.32 µM; in assay [3], 2.51 µM; in assay [4] it was 0.349 µM; in [5], 0.829 µM; in [6] it was 0.99 µM. In addition, the GI50 is 1.17 µM in assay [7], 0.512 µM in assay [8], 0.488 µM in assay [9] and 0.461 µM in assay [10]. The TGI in assay [1] was 5.98 µM; in assay [2] it was 13.4 µM; in assay [3] it was 8.94 µM; in assay [4], 3.4 µM; in assay [5], 5.27 µM; in assay [6], 3.56 µM. For the same compound, the TGI was 4.32 µM in assay [7], 2.52 µM in [8], 1.97 µM in [9] and 16.5 µM in [10].
Turning to `CCCCn1c(=O)c(/C=C/C(=O)/C=C/c2ccc(O)c(OC)c2)cc2ccc(Cl)cc21`, the GI50 in [1] is 1.77 µM; in assay [2], 1.76 µM; in [3], 1.75 µM; in assay [4], 1.96 µM; in assay [5] it was 1.96 µM; in assay [6], 1.66 µM. Besides, the GI50 in assay [7] was 2.06 µM; in assay [8], 1.69 µM; in assay [9], 1.51 µM; in assay [10] it was 1.9 µM. In addition, the TGI is 4.23 µM in [1]; 4.25 µM in assay [2]; 4.19 µM in assay [3]; 4.17 µM in assay [4]; 5.43 µM in [5]; 3.25 µM in [6]. In addition, the TGI turned out to be 4.98 µM in assay [7], 3.09 µM in [8], 2.84 µM in [9] and 5.94 µM in assay [10].
As for `Nc1nc(N)c2ncn(Cc3c(Cl)cccc3Cl)c2n1`, the TGI in [1], in assay [2], in assay [3], in assay [5], in assay [6] and in assay [7] was over 100 µM in each case. For the same compound, the TGI in assay [8], in [9] and in [10] was over 100 µM throughout.
As to `COc1cc(C)c(N(C)C(=O)CN(C)C)cc1Nc1nc(Nc2cccc(F)c2C(N)=O)c2cc[nH]c2n1`, the GI50 in assay [1] is over 24 µM; in assay [2], 18.4 µM; in assay [3], 0.645 µM; in assay [4], over 23.2 µM; in assay [5], over 25 µM; in assay [6], 20.5 µM. The GI50 in assay [7] was over 25 µM; in assay [8], 13.3 µM; in assay [9] it was 24.6 µM; in assay [10], over 25 µM. Also, the TGI was over 25 µM in [1]; over 25 µM in assay [2]; 16.2 µM in assay [3]; over 25 µM in assay [4]; over 25 µM in assay [5]; over 25 µM in [6]. For the same compound, the TGI in [7], in assay [8], in [9] and in [10] was over 25 µM in each case.
